This is an account of results in patent US20260226065A1, “SUBSTITUTED BENZENE COMPOUND” (DAIICHI SANKYO COMPANY, LIMITED, priority 2023, published 2026).

Structures are written as SMILES.

For the experiment, the target named is T1, NLRP3 inflammasome (Homo sapiens, UniProt Q96P20).
T1 construct: endogenous in cells; host or cells: THP-1 (human monocyte-derived), PMA-differentiated, Nigericin-stimulated
T1 sequence (Q96P20 whole entry): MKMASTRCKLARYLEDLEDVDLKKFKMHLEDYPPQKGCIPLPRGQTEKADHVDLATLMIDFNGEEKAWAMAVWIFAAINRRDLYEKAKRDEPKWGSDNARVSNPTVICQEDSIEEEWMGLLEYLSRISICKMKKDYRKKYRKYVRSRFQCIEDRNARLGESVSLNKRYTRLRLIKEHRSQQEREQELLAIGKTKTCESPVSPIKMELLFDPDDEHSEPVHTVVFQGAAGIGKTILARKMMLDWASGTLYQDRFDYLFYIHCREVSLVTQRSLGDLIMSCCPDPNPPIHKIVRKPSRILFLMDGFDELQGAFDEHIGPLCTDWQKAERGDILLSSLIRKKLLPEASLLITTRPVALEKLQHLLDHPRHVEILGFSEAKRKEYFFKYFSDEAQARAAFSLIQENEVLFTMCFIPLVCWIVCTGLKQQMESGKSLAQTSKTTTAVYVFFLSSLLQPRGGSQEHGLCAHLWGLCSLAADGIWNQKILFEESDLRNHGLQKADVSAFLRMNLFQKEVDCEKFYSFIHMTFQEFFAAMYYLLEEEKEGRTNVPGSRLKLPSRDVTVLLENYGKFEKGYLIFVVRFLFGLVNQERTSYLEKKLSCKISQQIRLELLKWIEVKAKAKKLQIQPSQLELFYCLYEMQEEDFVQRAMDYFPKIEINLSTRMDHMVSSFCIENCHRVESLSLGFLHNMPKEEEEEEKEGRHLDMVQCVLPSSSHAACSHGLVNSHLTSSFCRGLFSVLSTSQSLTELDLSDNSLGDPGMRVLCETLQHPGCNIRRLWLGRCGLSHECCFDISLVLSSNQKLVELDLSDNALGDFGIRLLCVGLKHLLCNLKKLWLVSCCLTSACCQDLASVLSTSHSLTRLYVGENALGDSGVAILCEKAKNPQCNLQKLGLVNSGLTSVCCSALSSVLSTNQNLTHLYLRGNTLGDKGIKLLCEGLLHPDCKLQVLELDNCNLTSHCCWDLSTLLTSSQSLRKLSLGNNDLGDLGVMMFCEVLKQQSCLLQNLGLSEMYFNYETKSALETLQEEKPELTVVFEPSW
The experiment is described as follows: In vitro IL-1β production test (PMA-differentiated THP-1 cells, Nigericin stimulation, AlphaLISA). The experiment is classed as cell-based. As to conditions: inhibition of IL-1β production; THP-1 cells differentiated with 200 nM PMA; 0.015 mM Nigericin; 2 hours. The procedure:
Human monocyte-derived THP-1 cells were cultured for one day in 10% bovine serum-containing RPMI-1640 medium (Thermo #A10491-01) supplemented with 200 nM phorbol 12-myristate 13-acetate (PMA, Sigma #P8139) to induce differentiation.
NLRP3 inflammasome was induced by replacing the culture medium with bovine serum-free RPMI-1640 medium supplemented with 0.015 mM Nigericin (Sigma #SML1779) and the test compound of known concentrations.
After 2 hours, the culture medium supernatant was collected and the IL-1β protein concentration was measured using the AlphaLISA (registered trademark) assay (PerkinElmer #AL220C).
The IL-1β concentration without the addition of the test compound and with Nigericin stimulation was set as 0% inhibitory activity, and the IL-1β concentration without Nigericin stimulation was set as 100% inhibitory activity, and the inhibition rate (% inhibition) of the test compound at each added concentration was calculated.
The % inhibition value was subjected to sigmoid fitting using a logistic regression model to calculate the 50% inhibitory concentration (IC50 value).
(Alpha assays give light when donor and acceptor beads are brought close together.)
A word on the IC50: it is the point on the concentration scale where inhibition reaches its midpoint. Low values mean higher potency, high ones lower potency. In turn, `Cc1cn([C@H]2C[C@@](C)(O)C2)c2nnc(-c3c(O)cc(C(F)(F)F)cc3C#N)cc12` [Example 53, 3-hydroxy-2-{7-[(1s,3s)-3-hydroxy-3-methylcyclobutyl]-5-methyl-7H-pyrrolo[2,3-c]pyridazin-3-yl}-5-(trifluoromethyl)benzonitrile] yielded an IC50 of 275 nM.

In the case of `Cc1cc(C(F)(F)F)cc(O)c1-c1cc2c(C)cn([C@@H]3CCC[C@@H](O)C3)c2nn1` [Example 54, 2-{7-[(1R,3R)-3-hydroxycyclohexyl]-5-methyl-7H-pyrrolo[2,3-c]pyridazin-3-yl}-3-methyl-5-(trifluoromethyl)phenol], the half-maximal inhibitory concentration (IC50) was found to be 84.3 nM.

For the molecule `Cc1cc(C(F)(F)F)cc(O)c1-c1cc2c(C)cn([C@@H]3CCCN(C)C3)c2nn1` [Example 56, 3-methyl-2-{5-methyl-7-[(3R)-1-methylpiperidin-3-yl]-7H-pyrrolo[2,3-c]pyridazin-3-yl}-5-(trifluoromethyl)phenol], the IC50 turned out to be 14.4 nM.

As for `Cc1cc(C(F)(F)F)cc(O)c1-c1cc2c(nn1)N([C@@H]1CCCN(CC(C)(C)O)C1)CC2` [Example 58, 2-{7-[(3R)-1-(2-hydroxy-2-methylpropyl)piperidin-3-yl]-6,7-dihydro-5H-pyrrolo[2,3-c]pyridazin-3-yl}-3-methyl-5-(trifluoromethyl)phenol], the midpoint of inhibition, the IC50, lay at 55.8 nM.

As to `Cc1cc(C(F)(F)F)cc(O)c1-c1cc2c(C(F)(F)F)cn([C@H]3C[C@@](C)(O)C3)c2nn1` [Example 59, 2-{7-[(1s,3s)-3-hydroxy-3-methylcyclobutyl]-5-(trifluoromethyl)-7H-pyrrolo[2,3-c]pyridazin-3-yl}-3-methyl-5-(trifluoromethyl)phenol], the half-maximal inhibitory concentration (IC50) was 95.8 nM.

Molecule `Cc1cc(C(F)(F)F)cc(O)c1-c1cc2c(nn1)N([C@@H]1C[C@@H](F)CN(C)C1)CC2` [Example 60, 2-{7-[(3R,5R)-5-fluoro-1-methylpiperidin-3-yl]-6,7-dihydro-5H-pyrrolo[2,3-c]pyridazin-3-yl}-3-methyl-5-(trifluoromethyl)phenol] gave an IC50 of 74.8 nM.

Turning to `Cc1cc(C(F)(F)F)cc(O)c1-c1cc2c(nn1)N([C@@H]1CCCN(CC3CC3)C1)CC2` [Example 61, 2-{7-[(3R)-1-(cyclopropylmethyl)piperidin-3-yl]-6,7-dihydro-5H-pyrrolo[2,3-c]pyridazin-3-yl}-3-methyl-5-(trifluoromethyl)phenol], the concentration for half-maximal inhibition (IC50) is 25.3 nM.

With `CCc1cc(C)c(-c2cc3c(C)cn([C@H]4C[C@@](C)(O)C4)c3nn2)c(O)c1` [Example 62, 5-ethyl-2-{7-[(1s,3s)-3-hydroxy-3-methylcyclobutyl]-5-methyl-7H-pyrrolo[2,3-c]pyridazin-3-yl}-3-methylphenol], the IC50 worked out at 70.8 nM.

The molecule `Cc1cn([C@H]2C[C@@](C)(O)C2)c2nnc(-c3c(O)cc(Cl)cc3Cl)cc12` [Example 63, 3,5-dichloro-2-{7-[(1s,3s)-3-hydroxy-3-methylcyclobutyl]-5-methyl-7H-pyrrolo[2,3-c]pyridazin-3-yl}phenol] came in with a concentration for half-maximal inhibition (IC50) of 42.3 nM.

With `CCN1CCC[C@@H](n2cc(C#N)c3cc(-c4c(C)cc(C(F)(F)F)cc4O)nnc32)C1` [Example 64, 7-[(3R)-1-ethylpiperidin-3-yl]-3-[2-hydroxy-6-methyl-4-(trifluoromethyl)phenyl]-7H-pyrrolo[2,3-c]pyridazine-5-carbonitrile], the IC50 was 9.6 nM.

For the molecule `Cc1cc(C(F)(F)F)cc(O)c1-c1cc2c(C)cn(C34COCC(O)(C3)C4)c2nn1` [Example 65, 5-{3-[2-hydroxy-6-methyl-4-(trifluoromethyl)phenyl]-5-methyl-7H-pyrrolo[2,3-c]pyridazin-7-yl}-3-oxabicyclo[3.1.1]heptan-1-ol], the half-maximal inhibitory concentration (IC50) was 47 nM.

Take `CCN1C[C@H](F)C[C@@H](N2CCc3cc(-c4c(C)cc(C(F)(F)F)cc4O)nnc32)C1` [Example 66, 2-{7-[(3R,5R)-1-ethyl-5-fluoropiperidin-3-yl]-6,7-dihydro-5H-pyrrolo[2,3-c]pyridazin-3-yl}-3-methyl-5-(trifluoromethyl)phenol]: half-maximal inhibition (IC50) required 16.4 nM.

In the case of `CCN1CCC[C@@H](n2cc(C#N)c3cc(-c4c(C)cc(OC(F)F)cc4O)nnc32)C1` [Example 67, 3-[4-(difluoromethoxy)-2-hydroxy-6-methylphenyl]-7-[(3R)-1-ethylpiperidin-3-yl]-7H-pyrrolo[2,3-c]pyridazine-5-carbonitrile], the IC50 was found to be 4.93 nM.

As to `Cc1cc(OC(F)F)cc(O)c1-c1cc2c(C#N)cn([C@@H]3CCCN(C(C)C)C3)c2nn1` [Example 68, 3-[4-(difluoromethoxy)-2-hydroxy-6-methylphenyl]-7-[(3R)-1-(propan-2-yl)piperidin-3-yl]-7H-pyrrolo[2,3-c]pyridazine-5-carbonitrile], 6.01 nM corresponded to half-maximal inhibition (IC50).

Turning to `Cc1cc(C(C)(F)F)cc(O)c1-c1cc2c(C)cn([C@H]3C[C@@](C)(O)C3)c2nn1` [Example 69, 5-(1,1-difluoroethyl)-2-{7-[(1s,3s)-3-hydroxy-3-methylcyclobutyl]-5-methyl-7H-pyrrolo[2,3-c]pyridazin-3-yl}-3-methylphenol], half-maximal inhibition (IC50) was put at 47.8 nM.

As to `Cc1cc(C(F)(F)F)cc(O)c1-c1cc2c(C)cn(C34CCC(O)(C3)C4)c2nn1` [Example 70, 4-{3-[2-hydroxy-6-methyl-4-(trifluoromethyl)phenyl]-5-methyl-7H-pyrrolo[2,3-c]pyridazin-7-yl}bicyclo[2.1.1]hexan-1-ol], inhibition was half-maximal at 31.2 nM (IC50).

Consider `CCN1CCC[C@@H](n2cc(C)c3cc(-c4c(C)cc(OC(F)F)cc4O)nnc32)C1` [Example 71, 5-(difluoromethoxy)-2-{7-[(3R)-1-ethylpiperidin-3-yl]-5-methyl-7H-pyrrolo[2,3-c]pyridazin-3-yl}-3-methylphenol], for which the IC50 amounted to 8.18 nM.

For `COc1cn([C@H]2C[C@@](C)(O)C2)c2nnc(-c3c(C)cc(OC(F)F)cc3O)cc12` [Example 72, 5-(difluoromethoxy)-2-{7-[(1s,3s)-3-hydroxy-3-methylcyclobutyl]-5-methoxy-7H-pyrrolo[2,3-c]pyridazin-3-yl}-3-methylphenol], half-maximal inhibition (IC50) was put at 53.1 nM.

For the molecule `Cc1cc(OC(F)F)cc(O)c1-c1cc2c(C#N)cn([C@H]3C[C@@](C)(O)C3)c2nn1` [Example 74, 3-[4-(difluoromethoxy)-2-hydroxy-6-methylphenyl]-7-[(1s,3s)-3-hydroxy-3-methylcyclobutyl]-7H-pyrrolo[2,3-c]pyridazine-5-carbonitrile], the IC50 was 26.1 nM.

Regarding `CCN1CC2(O)CC(n3cc(C)c4cc(-c5c(C)cc(C(F)(F)F)cc5O)nnc43)(C1)C2` [Example 75, 3-ethyl-5-{3-[2-hydroxy-6-methyl-4-(trifluoromethyl)phenyl]-5-methyl-7H-pyrrolo[2,3-c]pyridazin-7-yl}-3-azabicyclo[3.1.1]heptan-1-ol], the IC50 was determined as 98.4 nM.

For `CCN1CCC[C@@H](n2cc(OC)c3cc(-c4c(C)cc(C(F)(F)F)cc4O)nnc32)C1` [Example 77, 2-{7-[(3R)-1-ethylpiperidin-3-yl]-5-methoxy-7H-pyrrolo[2,3-c]pyridazin-3-yl}-3-methyl-5-(trifluoromethyl)phenol], the IC50 amounted to 14 nM. Compared with the last molecule, the IC50 is about 7-fold lower.

In the case of `Cc1cc(OC(F)F)cc(O)c1-c1cc2c(OC(F)F)cn([C@H]3C[C@@](C)(O)C3)c2nn1` [Example 78, 5-(difluoromethoxy)-2-[5-(difluoromethoxy)-7-[(1s,3s)-3-hydroxy-3-methylcyclobutyl]-7H-pyrrolo[2,3-c]pyridazin-3-yl]-3-methylphenol], the IC50 came to 35 nM.

As for `Cc1cc(OC(F)F)cc(O)c1-c1cc2c3c(n([C@H]4C[C@@](C)(O)C4)c2nn1)CCC3` [Example 80, 5-(difluoromethoxy)-2-{8-[(1s,3s)-3-hydroxy-3-methylcyclobutyl]-5,6,7,8-tetrahydrocyclopenta[4,5]pyrrolo[2,3-c]pyridazin-3-yl}-3-methylphenol], the IC50 worked out at 22.4 nM.

In turn, `Cc1cc(C(F)(F)F)cc(O)c1-c1cc2c3ccccc3n([C@H]3C[C@@](C)(O)C3)c2nn1` [Example 81, 2-{9-[(1s,3s)-3-hydroxy-3-methylcyclobutyl]-9H-pyridazino[3,4-b]indol-3-yl}-3-methyl-5-(trifluoromethyl)phenol] gave an IC50 of 54.7 nM. Against the preceding molecule, the IC50 is about 2.4-fold higher.

For `Cc1cc(Cl)cc(O)c1-c1cc2c3c(n([C@H]4C[C@@](C)(O)C4)c2nn1)CCC3` [Example 82, 5-chloro-2-{8-[(1s,3s)-3-hydroxy-3-methylcyclobutyl]-5,6,7,8-tetrahydrocyclopenta[4,5]pyrrolo[2,3-c]pyridazin-3-yl}-3-methylphenol], the 50% inhibitory concentration (IC50) is 7.83 nM.

`Cc1cc(C(F)(F)F)cc(O)c1-c1cc2c3c(n([C@H]4C[C@@](C)(O)C4)c2nn1)CCO3` [Example 83, 2-{8-[(1s,3s)-3-hydroxy-3-methylcyclobutyl]-7,8-dihydro-6H-furo[2′,3′:4,5]pyrrolo[2,3-c]pyridazin-3-yl}-3-methyl-5-(trifluoromethyl)phenol] had an IC50 of 9.16 nM.

The molecule `Cc1cc(C(F)(F)F)cc(O)c1-c1cc2ccn(-c3ncc(F)cn3)c2nn1` [Example 84, 2-[7-(5-fluoropyrimidin-2-yl)-7H-pyrrolo[2,3-c]pyridazin-3-yl]-3-methyl-5-(trifluoromethyl)phenol] had a 50% inhibitory concentration (IC50) of 12.8 nM.

Molecule `Cc1cc(C(F)(F)F)cc(O)c1-c1cc2cc(C)n([C@H]3C[C@@](C)(O)C3)c2nn1` [Example 87, 2-{7-[(1s,3s)-3-hydroxy-3-methylcyclobutyl]-6-methyl-7H-pyrrolo[2,3-c]pyridazin-3-yl}-3-methyl-5-(trifluoromethyl)phenol] showed an IC50 of 40.1 nM. Compared with the last molecule, the IC50 is about 3.1-fold higher.
